According to article PMC11024979 (ACS Omega, 2024):
Like-named read-outs stand apart in the source and are kept apart here.

Key:
[1] = target: anti-cortisol (17) Fab fragment; conditions: read-out: KD (SPR); determined in previous work ref 9; cited from earlier work
[2] = target: anti-cortisol (17) Fab fragment; assay: Initial ligand screening by native MS; format: binding, murine; conditions: Fab 0.1 μM, ligand 100 nM to 10 μM
[3] = target: anti-cortisol (17) Fab fragment; assay: Surface plasmon resonance; format: binding, murine; conditions: read-out: KD (SPR); determined in this work
[4] = tested on: anti-cortisol (17) Fab fragment; assay: Native MS direct ligand titration, KD by one-site binding fit; set-up: species or system murine; conditions: native MS KD ratio

Which results are given for `C[C@]12C[C@H](O)[C@H]3[C@@H](CCC4=CC(=O)CC[C@@]43C)[C@@H]1CC[C@@H]2C(=O)CO` [corticosterone]?
Kd [1]: 31 ± 2 nM; approximate KD range from initial ligand screening [2]: nanomolar range

Which Kd [3] does the source give for `C[C@]12CCC(=O)C=C1CC[C@@H]1[C@@H]2CC[C@@]2(C)[C@H]1CC[C@]2(O)C(=O)CO` [11-deoxycortisol] here?
The Kd was 120 nM.

What about the “approximate KD range from initial ligand screening” value [2] of the same compound?
Its value is “submicromolar affinity”.

And the “fold higher KD compared to corticosterone” value [4]?
Its value is “more than 4 fold”.

With `C[C@]12CC[C@H]3[C@@H](CCC4=CC(=O)CC[C@@]43C)[C@@H]1CC[C@@H]2O` [testosterone] as the compound, how does the Kd [1] read?
Its Kd is 23000 ± 4000 nM.

Which results are given for `C[C@]12C=CC(=O)C=C1CC[C@@H]1[C@@H]2[C@@H](O)C[C@@]2(C)[C@H]1CC[C@]2(O)C(=O)CO` [prednisolone]?
Kd [1]: 13 ± 1 nM; approximate KD range from initial ligand screening [2]: nanomolar range

With `CC(=O)[C@H]1CC[C@H]2[C@@H]3CCC4=CC(=O)CC[C@]4(C)[C@H]3CC[C@]12C` [progesterone] as the compound, how does the Kd [1] read?
The Kd was 15000 ± 3000 nM.

What does the source list for `C[C@]12CCC(=O)C=C1CC[C@@H]1[C@@H]2[C@@H](O)C[C@@]2(C)[C@H]1CC[C@]2(O)C(=O)CO` [cortisol]?
Kd [1]: 7 ± 1 nM; approximate KD range from initial ligand screening [2]: nanomolar range
